# Experiments:
# [1] = target: T1, binding between ZIKV EDIII and EDIII-specific mAb ZKA64-LALA (Zika virus, UniProt Q32ZE1, D679E/I627V/V603I/V629A); conditions: ELISA; EDIII 1.5 μg/ml, mAb 0.5 μg/ml; read-out: IC50, blocking EDIII-mAb binding, ZKA64-LALA
# T1 construct: human Fc (C)
# Method: (§1) Binding of compounds (NPs) to ZIKV full-length E (FIG. 3A), EDIII (FIG. 3B), and NS2B-NS3 (FIG. 3C) proteins, was detected by ELISA. The percent binding was reported in the presence or absence of serially diluted NPs using the formula (1-[E/EDIII-NP]/[E/EDIII])×100 (for E/EDIII binding) or (1-[NS2B-NS3-NP]/[NS2B-NS3])×100 (for NSEB-NS3 binding). […] The concentrations of ZIKV EDIII and mAbs were 1.5 and 0.5 μg/ml, respectively. […] The concentrations of substrate (Bz-Nle-Lys-Lys-Arg-AMC) and ZIKV NS2B-NS3 protein were 4 μM and 1 μg/ml, respectively. The percent inhibition of protease activity was calculated in the presence or absence of serially diluted compounds using the formula (1-[NS2B-NS3-substrate-NP]/[NS2B-NS3-substrate])×100. The IC50 values were calculated based on the percent inhibition. The data are expressed as mean±s.e.m. (n=4).
# (§2) ELISA was also used to determine the ability of ST087010 in inhibition of the binding between ZIKV EDIII and EDIII-specific human mAbs (SMZAb5, ZKA64-LALA, ZV-67, or Z004) or EDI/II-specific human mAb (ZKA78) control.
# [2] = target: T2, binding between ZIKV EDIII and EDIII-specific mAb ZV-67 (Zika virus, UniProt Q32ZE1, D679E/I627V/V603I/V629A); conditions: ELISA; EDIII 1.5 μg/ml, mAb 0.5 μg/ml; read-out: IC50, blocking EDIII-mAb binding, ZV-67
# T2 construct: human Fc (C)
# T2 sequence (Q32ZE1 584-695 V603I/I627V/V629A/D679E): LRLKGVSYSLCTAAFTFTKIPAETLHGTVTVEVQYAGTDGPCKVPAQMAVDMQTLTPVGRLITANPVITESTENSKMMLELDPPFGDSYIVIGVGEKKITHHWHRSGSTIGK
# Method: as §1, §2
# [3] = target: T3, binding between ZIKV EDIII and EDIII-specific mAb Z004 (Zika virus, UniProt Q32ZE1, D679E/I627V/V603I/V629A); conditions: ELISA; EDIII 1.5 μg/ml, mAb 0.5 μg/ml; read-out: IC50, blocking EDIII-mAb binding, Z004
# T3 construct: human Fc (C)
# T3 sequence (Q32ZE1 584-695 V603I/I627V/V629A/D679E): as above
# Method: as §1, §2
# [4] = target: T4, binding between ZIKV EDIII and EDIII-specific mAb SMZAb5 (Zika virus, UniProt Q32ZE1, D679E/I627V/V603I/V629A); conditions: ELISA; EDIII 1.5 μg/ml, mAb 0.5 μg/ml; read-out: IC50, blocking EDIII-mAb binding, SMZAb5
# T4 construct: human Fc (C)
# T4 sequence (Q32ZE1 584-695 V603I/I627V/V629A/D679E): as above
# Method: as §1, §2
# [5] = test system: DENV-2 human strain V594; experiment: DENV-2 infection in Ifnar1-/- mice, viral titers by flow cytometry; format: in vivo; conditions: 20 mg/kg i.p. 12 h before and 6, 24, 48 h after infection; DENV-2 V594 2×10^6 PFU; 3 dpi; vs gossypol and DMSO
# Excerpt: FIG. 11A is a schematic diagram of experimental procedures. […] FIG. 11B depicts representative images of DENV titers in brain, kidney, heart, and sera analyzed by flow cytometry at 3 dpi. C6/36 cells with or without DENV-2 infection were used as positive and negative controls, respectively. The percentage of infected cells to the total number of cells is shown in each figure. FIG. 11C depicts the detection of DENV titers in challenged mouse tissues and sera at 3 dpi. […] The data are presented as mean±s.e.m of duplicate wells (n=2). The experiments were repeated twice with similar results.
# ST087010 was evaluated for protection against DENV-2 infection in susceptible Ifnar1^−/− mice. […] Three days after infection, sera and tissues, including brain, kidney, and heart, were collected, and detected for DENV infection using a flow cytometry assay (as described below). […] DENV titers in tissues or sera were determined from ˜20 mg of tissue, or 25 μl of sera, and used for subsequent flow cytometry analysis.
# A flow cytometry assay was carried out to analyze DENV-2 titers in the infected mouse tissue supernatants and sera collected above. […] Viral titers (infectious units/ml or infectious units/g) were calculated using the formula: ((% of infected cells)×(total number of cells)×(dilution factor))/(amount of inoculum added to cells). […]
# T1 sequence (Q32ZE1 584-695 V603I/I627V/V629A/D679E): as above
compound,measurement,setting,value
Cc1cc2c(C(C)C)c(O)c(O)c(/C=N/n3c(=O)[nH][nH]c3=O)c2c(O)c1-c1c(C)cc2c(C(C)C)c(O)c(O)c(/C=N/n3c(=O)[nH][nH]c3=O)c2c1O [ST087010],IC50,[1],4.17 µM
same,IC50,[2],6.7 µM
same,IC50,[3],44.5 µM
same,IC50,[4],5.72 µM
same,"DENV-2 viral titer (number of infected cells) in brain, kidney, heart and sera",[5],significantly reduced number of infected cells

# Source: patent US20220313651A1, “INHIBITORS OF ZIKA VIRUS INFECTION” (priority 2019, published 2022)
